Measurements as given in article PMC7787731, “Synthesis and Characterization of New Dihydronaphthalene Candidates as Potent Cytotoxic Agents against MCF-7 Human Cancer Cells” (BioMed Research International, 2020).
Read-outs that look alike come from different tables or passages of the source.

Columns and labels:
[1] = system: normal epithelial breast cells (MCF10A); test: In vitro cytotoxicity MTT assay against normal breast MCF10A cells; assay type: cell-based; conditions: for IC50: Homo sapiens, MCF-10A, MTT assay, normal breast cell line, mean ± SD of three replicates
From the text: Statistical significance was defined when p < 0.05.

[2] = system: MCF-7 (human breast adenocarcinoma) cell lines; test: In vitro cytotoxicity MTT assay against breast cancer MCF-7 cells
Experimental: Both MCF-7 and MCF10A cells were purchased from American Type Culture Collection (ATCC). Cells were grown in DMEM culture medium (Invitrogen/Life Technologies) supplemented with 10% FBS (Hyclone, USA), 10 μg/mL insulin (Sigma), and 1% penicillin-streptomycin antibiotic solution. Chemicals used were of cell culture grade and were purchased from Sigma or Invitrogen. Prior to the assay, cells (cells density 1.2–1.8 × 10,000 cells/well) were plated in 96-well plate with 100 μL medium and were allowed to grow for 24 h.
In vitro cytotoxic activity of the prepared compounds against breast (MCF-7) cancer cells was assessed using MTT assay [24, 25]. The assay depends on the mitochondrial reduction of the colorless 3-(4,5-methyl-2-thiazolyl)-2,5-diphenyl-2H-tetrazolium bromide (MTT) within viable cells into a dark blue formazan product. […] The supernatant was taken away from each well, and 100 μL of DMSO was added to each well to dissolve the formazan crystals. After mixing with a mechanical plate mixer, a microplate reader was used to measure the absorbance of each well at a wavelength of 570 nm. […] IC50 values were calculated from the linear regression of the corresponding calibration curves using the Origin® 6.1 software.
Results were analyzed with the help of SPSS 9.0 and were presented as mean ± SD of three replicates. The mean comparison between different evaluated groups was performed using ANOVA one-way analysis of variance. Statistical significance was defined when p < 0.05.

[3] = Homo sapiens, MCF7, 72 h, read-out: IC50 (μM) MCF-7, MTT assay, 0.39-100 μM, 3 days, mean ± SD of three replicates

Row | SMILES | melting point [°C] | IC50 [1] [µM] | IC50 [2, 3] [µM] | decrease in cytotoxicity relative to N-ethyl thiourea derivative 3d ([2]; MCF-7, N-4-bromophenyl versus N-ethyl substitution) | less toxic than Saturosporin towards MCF01A normal cells ([1]; compared with Saturosporin as worded) | IC50 ([2]; read-out: IC50 (μM) MCF-7, MTT assay, 0.39-100 μM, 3 days, mean ± SD of three replicates) [µM]
1 | COc1ccc2c(c1)CCCC2=NNC(=S)Nc1ccc(Br)cc1 [Compound 3a, N-(4-Bromophenyl)-2-(6-methoxy-3,4-dihydronaphthalen-1(2H)-ylidene)hydrazine-1-carbo thioamide] | 191 to 193 | 35.4 ± 0.64 | 12.7 ± 0.33 | more than 3 times |  | 
2 | COc1ccc2c(c1)CCCC2=NNC(=S)Nc1ccc(F)cc1 [Compound 3b, N-(4-Fluorophenyl)-2-(6-methoxy-3,4-dihydronaphthalen-1(2H)-ylidene)hydrazine-1-carbo thioamide] | 154 to 156 |  |  |  |  | 
3 | COc1ccc2c(c1)CCCC2=NNC(=S)Nc1ccc(Oc2ccccc2)cc1 [Compound 3c, 2-(6-Methoxy-3,4-dihydronaphthalen-1(2H)-ylidene)-N-(4-phenoxyphenyl)-hydrazine-1-carbo thioamide] | 171 |  |  |  |  | 
4 | CCNC(=S)NN=C1CCCc2cc(OC)ccc21 [Compound 3d, N-(4-Ethyl)-2-(6-methoxy-3,4-dihydronaphthalen-1(2H)-ylidene)hydrazine-1-carbothioamide] | 150 to 153 | 19.7 ± 0.51 | 3.73 ± 0.09 |  |  | 
5 | COc1ccc2c(c1)CCCC2=NN1C(=O)CSC1=Nc1ccc(Br)cc1 [Compound 4a, 2-((4-Bromophenyl)imino)-3-((6-methoxy-3,4-dihydronaphthalen-1(2H)-ylidene)amino) thiazolidin-4-one] | 183 | 68 ± 0.86 | 28.6 ± 0.74 |  |  | 
6 | COc1ccc2c(c1)CCCC2=NN1C(=O)CSC1=Nc1ccc(F)cc1 [Compound 4b, 2-((4-Fluorophenyl)imino)-3-((6-methoxy-3,4-dihydronaphthalen-1(2H)-ylidene)amino) thiazolidin-4-one] | 190 | 29.2 ± 0.36 | 10.2 ± 0.26 |  |  | 
7 | COc1ccc2c(c1)CCCC2=NN1C(=O)CSC1=Nc1ccc(Oc2ccccc2)cc1 [Compound 4c, 3-((6-Methoxy-3,4-dihydronaphthalen-1(2H)-ylidene)amino)-2-((4-phenoxyphenyl)imino) thiazolidin-4-one] | 171 |  |  |  |  | 
8 | CCN=C1SCC(=O)N1N=C1CCCc2cc(OC)ccc21 [Compound 4d, 2-(Ethylimino)-3-((6-methoxy-3,4-dihydronaphthalen-1(2H)-ylidene)amino)thiazolidin-4-one] | 117 | 30.7 ± 0.53 | 10.1 ± 0.26 |  |  | 
9 | COc1ccc(C2C(C#N)=C(N)Oc3c2sc(=Nc2ccc(Br)cc2)n3N=C2CCCc3cc(OC)ccc32)cc1 (stereo not drawn) [Compound 5a, 5-Amino-2-((4-bromophenyl)imino)-3-((6-methoxy-3,4-dihydronaphthalen-1(2H)-ylidene)amino)-7-(4-methoxyphenyl)-3,7-dihydro-2H-pyrano [2,3-d]thiazole-6-carbonitrile] | 247 | 17.2 ± 0.44 | 0.93 ± 0.02 |  | about 18.45 folds | 
10 | COc1ccc2c(c1)CCCC2=Nn1c2c(sc1=Nc1ccc(Br)cc1)C(c1ccc([N+](=O)[O-])cc1)C(C#N)=C(N)O2 (stereo not drawn) [Compound 5b, 5-Amino-2-((4-bromophenyl)imino)-3-((6-methoxy-3,4-dihydronaphthalen-1(2H)-ylidene)amino)-7-(4-nitrophenyl)-3,7-dihydro-2H-pyrano [2,3-d]thiazole-6-carbonitrile] | 213 |  |  |  |  | 
11 | COc1ccc(C2C(C#N)=C(N)Oc3c2sc(=Nc2ccc(Oc4ccccc4)cc2)n3N=C2CCCc3cc(OC)ccc32)cc1 (stereo not drawn) [Compound 5d, 5-Amino-3-((6-methoxy-3,4-dihydronaphthalen-1(2H)-ylidene)amino)-7-(4-methoxyphenyl) -2-((4-phenoxyphenyl)imino)--3,7-dihydro-2H-pyrano [2,3-d]thiazole-6-carbonitrile] | 209 | 16.3 ± 0.42 | 1.76 ± 0.04 |  |  | 
12 | COc1ccc2c(c1)CCCC2=Nn1c2c(sc1=Nc1ccc(Oc3ccccc3)cc1)C(c1ccc([N+](=O)[O-])cc1)C(C#N)=C(N)O2 (stereo not drawn) [Compound 5e, 5-Amino-3-((6-methoxy-3,4-dihydronaphthalen-1(2H)-ylidene)amino)-7-(4-nitrophenyl)-2-((4-phenoxyphenyl)imino)--3,7-dihydro-2H-pyrano [2,3-d]thiazole-6-carbonitrile] | 223 | 14.1 ± 0.36 | 2.36 ± 0.06 |  |  | 

More lines, main results first:

Row | melting point [°C] | SMILES | IC50 [1] [µM] | IC50 [2, 3] [µM] | decrease in cytotoxicity relative to N-ethyl thiourea derivative 3d ([2]; MCF-7, N-4-bromophenyl versus N-ethyl substitution) | less toxic than Saturosporin towards MCF01A normal cells ([1]; compared with Saturosporin as worded) | IC50 ([2]; read-out: IC50 (μM) MCF-7, MTT assay, 0.39-100 μM, 3 days, mean ± SD of three replicates) [µM]
13 | 280 | COc1ccc2c(c1)CCCC2=Nn1c2c(sc1=Nc1ccc(Oc3ccccc3)cc1)C(c1ccco1)C(C#N)=C(N)O2 (stereo not drawn) [Compound 5f, 5-Amino-7-(furan-2-yl)-3-((6-methoxy-3,4-dihydronaphthalen-1(2H)-ylidene)amino)-2-((4-phenoxyphenyl)imino)-3,7-dihydro-2H-pyrano [2,3-d]thiazole-6-carbonitrile] |  |  |  |  | 
14 | 236 | COc1ccc2c(c1)CCCC2=NN1C(=O)C(=CN(C)C)SC1=Nc1ccc(Br)cc1 [Compound 6, 2-((4-Bromophenyl)imino)-5-((dimethylamino)methylene)-3-((6-methoxy-3,4-dihydronaphthalene-1(2H)-ylidene)amino)thiazolidin-4-one] | 17.78 ± 0.16 | 7.48 ± 0.19 |  |  | 
15 | 90 | CCOC(=O)c1cc2sc(=Nc3ccc(Br)cc3)n(N=C3CCCc4cc(OC)ccc43)c2nc1C [Compound 7, Ethyl-2-((4-bromophenyl)imino)-3-((6-methoxy-3,4-dihydronaphthalen-1(2H)-ylidene)amino)-5-methyl-2,3-dihydrothiazolo [4,5-b]pyridine-6-carboxylate] |  |  |  |  | 
16 | 128 | COc1ccc2c(c1)CCC/C2=N\n1/c(=N/c2ccc(Br)cc2)sc2cc(C(C)=O)c(C)nc21 [Compound 8] | 43.7 ± 0.59 | 20 |  |  | 20 ± 0.52
17 | 224 | COc1ccc2c(c1)CCCC2=Nn1c(=Nc2ccc(Br)cc2)sc2cc(C#N)c(=O)[nH]c21 [Compound 9, 2-((4-Bromophenyl)imino)-3-((6-methoxy-3,4-dihydronaphthalen-1(2H)-ylidene)amino)-5-oxo-2,3,4,5-tetrahydrothiazolo [4,5-b]pyridine-6-carbonitrile] |  |  |  |  | 
18 | 286 | COc1ccc2c(c1)CCCC2=Nn1c(=Nc2ccc(Br)cc2)sc2cc(C#N)c(=S)[nH]c21 [Compound 10, 2-((4-Bromophenyl)imino)-3-((6-methoxy-3,4-dihydronaphthalen-1(2H)-ylidene)amino)-5-thioxo-2,3,4,5-tetrahydrothiazolo [4,5-b]pyridine-6-carbonitrile] | 15 ± 0.39 | 2.83 ± 0.07 |  |  | 
19 | 220 | COc1ccc2c(c1)CCCC2=NN1C(=O)C(=CNc2nc3ccccc3[nH]2)SC1=Nc1ccc(Br)cc1 [Compound 11, 5-((1H-Benzo [d]imidazol-2-ylamino)methylene)-2-(4-bromophenylimino)-3-((6-methoxy-3,4-dihydronaphthalen-1(2H)-ylidene)amino)thiazolidin-4-one] |  |  |  |  | 
20 | 152 | COc1ccc2c(c1)CCCC2=NN1C(=O)C(=CNc2nccs2)SC1=Nc1ccc(Br)cc1 [Compound 12, 2-(4-Bromophenylimino)-3-((6-methoxy-3,4-dihydronaphthalen-1(2H)-ylidene)amino)-5-((thiazol-2-ylamino)methylene)thiazolidin-4-one] |  |  |  |  | 
